Assay results as given in US20240109912A1, “TRICYCLIC PYRIMIDINES AS CYCLIN-DEPENDENT KINASE 7 (CDK7) INHIBITORS” (JANSSEN PHARMACEUTICA NV, priority 2020, published 2024).
pIC50: −log10 of the molar value. Several values for one entry are separate records, joined by “and”; a condition that tells them apart may be missing. Equal values may be shown once. Read-outs that look alike come from different tables or passages of the source.

Key:
[1] = system: RNA polymerase II Serine 5 phosphorylation in A549 cells overexpressing CDK7 mutant (C312S); assay: Imaging-based cellular RNA PolII Ser5 phosphorylation assay in A549 cells overexpressing CDK7-mutant (C312S); format: cell-based, human; conditions: for IC50: Homo sapiens, A549, A549 cells overexpressing CDK7 mutant (C312S), read-out: CDK7_ A549 mutant hCDK7(pIC50) (converted); for CDK7_ A549 mutant hCDK7(pIC50): A549 cells overexpressing CDK7 mutant (C312S)
Outline: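 A stably transduced A549 pool overexpressing CDK7 C312S, a mutant that blocks covalent binding at Cys312, while retaining endogenous wild-type CDK7 was used. Ser5 phosphorylation was measured by imaging, and IC50 values were derived.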

[2] = system: RNA polymerase II Serine 5 phosphorylation (CDK7) in A549 cells
Text: To evaluate inhibition of CDK7 kinase activity, a 384-well automated imaging assay was used. This assay detects Serine 5 phosphorylation on a unique heptapeptide sequence in the C-terminal domain of Rpb1 subunit of RNA polymerase II, the downstream substrate of CDK7. This heptapeptide sequence is repeated up to 52 times in the CTD of Rpb1.
RNA Polymerase II Serine 5 phosphorylation was detected using a specific rabbit Phospho-Rpb1 CTD (Ser5) antibody. A549 adenocarcinoma human alveolar basal epithelial cells were seeded in 20 μl medium (DMEM supplemented with 1% Fetal Bovine Serum (heat inactivated 30′ 56° C.), 2 mM L-glutamine, 50 U/ml penicillin 50 μg/ml streptomycin, 1 mM sodium pyruvate and 50 mM hepes) at 1000 cells/well and cultured in poly-D-lysine coated μclear 384 black plates for 20 hours at 37° C. and 5% CO2.
After incubation cells were challenged with compound for 3 hours at 37° C. and 5% CO2. DMSO was used as high control and as low control 10 μM of the following reference compound was used:
40 nl of test compounds and controls were spotted in cell plates using Echo Liquid Handler (Echo 550, Labcyte). Incubation was followed by 20 minutes fixation with 20 μl 10% formaldehyde at room temperature. Medium/formaldehyde solution was removed, plates were washed 3 times with 30 μl D-PBS (w/o Ca^2+ and Ma^2+) and permeabilization was done by adding 20 μl ice cold methanol for 20 minutes. Cells were washed again 3 times with 30 μl D-PBS and 20 μl blocking buffer (25 ml fetal bovine serum in 500 ml D-PBS) was added for 1 hour.
After removing blocking buffer 20 μl 1/1000 primary antibody rabbit Phospho-Rpb1 CTD (Ser5) antibody was added which binds to the phosphorylated Serine5 of the heptapeptide sequences in the CTD of Rpb1. […] Last, plates were washed 2 times with 30 μl D-PBS and wells were filled with 40 μL D-PBS, plates were sealed (Thermowell sealing tape) and stored at 4° C. until reading. Plates were read with Opera Phenix (Perkin Elmer) with 10× air objective. Data were calculated and analyzed in Phaedra.
IC50 values were calculated using the following formula
Average value of all HC's and all LC's are used for normalizations.
% Effect=100−(sample-LC)/(HC-LC)×100
% Control=(sample/HC)×100
From this an IC50 value can be obtained. An estimate of the slope of the plot in terms of the Hill coefficient is also obtained.

[3] = target: CDK7/cyclinH/MAT1 trimeric complex (Homo sapiens (Human), UniProt P50613); assay: In vitro CDK7 assay, potency of irreversible covalent inhibitors (kinact/KI)
[4] = CDK7 (20 nM enz.) (KI, μM), 20 nM enz.
[5] = read-out: CDK7 (20 nM enz.) (kinact, s^−1), 20 nM enz.
[6] = read-out: CDK7 (20 nM enz.) (kinact/ KI, M^−1*s^−1), 20 nM enz.
[7] = read-out: CDK7 (kinact, s^−1), Table B
[8] = read-out: CDK7 (kinact/KI, M^−1*s^−1), Table B
[9] = read-out: CDK7 (20 nM enz.) (kobs/[I], M^−1*s^−1), 20 nM enz.

Sequence of CDK7/cyclinH/MAT1 trimeric complex (P50613 whole entry): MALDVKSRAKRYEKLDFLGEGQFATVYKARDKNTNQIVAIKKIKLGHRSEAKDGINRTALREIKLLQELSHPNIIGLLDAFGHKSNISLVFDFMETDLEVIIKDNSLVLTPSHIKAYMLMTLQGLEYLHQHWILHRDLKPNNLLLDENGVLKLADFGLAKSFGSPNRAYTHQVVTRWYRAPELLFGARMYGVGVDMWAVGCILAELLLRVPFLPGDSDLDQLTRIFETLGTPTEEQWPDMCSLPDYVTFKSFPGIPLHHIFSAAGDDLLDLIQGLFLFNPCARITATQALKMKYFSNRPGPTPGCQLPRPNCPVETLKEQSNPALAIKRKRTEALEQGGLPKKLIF
Sequence of CDK7/cyclinH/MAT1 trimeric complex (P51946 whole entry partner): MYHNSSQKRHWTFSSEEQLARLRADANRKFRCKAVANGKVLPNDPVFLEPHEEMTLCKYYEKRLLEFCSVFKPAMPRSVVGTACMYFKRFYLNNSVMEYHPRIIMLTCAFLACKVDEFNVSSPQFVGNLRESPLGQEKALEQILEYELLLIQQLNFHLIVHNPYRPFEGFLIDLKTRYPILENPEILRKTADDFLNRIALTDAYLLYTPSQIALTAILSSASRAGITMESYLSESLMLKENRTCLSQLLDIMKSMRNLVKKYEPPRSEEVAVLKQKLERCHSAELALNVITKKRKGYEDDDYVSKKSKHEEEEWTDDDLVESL
Sequence of CDK7/cyclinH/MAT1 trimeric complex (P51948 whole entry partner): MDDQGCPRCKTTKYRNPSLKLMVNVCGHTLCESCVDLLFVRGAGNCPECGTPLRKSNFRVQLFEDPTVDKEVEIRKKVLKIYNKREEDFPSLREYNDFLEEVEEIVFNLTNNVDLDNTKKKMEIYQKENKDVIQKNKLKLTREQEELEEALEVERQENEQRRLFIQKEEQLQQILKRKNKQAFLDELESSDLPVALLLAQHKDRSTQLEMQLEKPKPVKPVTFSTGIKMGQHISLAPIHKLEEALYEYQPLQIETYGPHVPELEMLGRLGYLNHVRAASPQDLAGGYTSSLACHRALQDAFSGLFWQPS

SMILES | IC50 [1] | melting point | pIC50 [2] | Ki [3, 4] | kinact [3, 5] | kinact/KI [3, 6] | CDK7_ A549 mutant hCDK7(pIC50) [1] | CDK7 (20 nM enz.) (kinact, s^−1) ([3]; 20 nM enz.) | CDK7 (20 nM enz.) (kinact/ KI, M^−1*s^−1) ([3]; 20 nM enz.) | Ki ([3]; CDK7 (KI(μM)), Table B) | kinact [3, 7] | kinact/KI [3, 8] | kinact/KI [3, 9] | CDK7 (kinact, s^−1) ([3]; Table B) | CDK7 (kinact/KI, M^−1*s^−1) ([3]; Table B)
C=CC(=O)N1CC[C@@H](N2CC(c3cc4c(c(C5CC5)c3)OCc3c(ncnc3N3CCS(=O)(=O)CC3)N4)C2)C1 (single isomer, unassigned) [compound 93] | > 10000 nM | > 300 °C | 6.37 | 0.277 µM | 6.26e-05 s⁻¹ | 226 M⁻¹ s⁻¹ |  |  |  |  |  |  |  |  | 
C=CC(=O)N1CC[C@H](N2CC(c3cc4c(c(C5CC5)c3)OCc3c(ncnc3N3CCS(=O)(=O)CC3)N4)C2)C1 (single isomer, unassigned) [compound 94] | > 10000 nM | 167 °C | 6.27 | 0.498 µM | 8.53e-05 s⁻¹ | 171 M⁻¹ s⁻¹ |  |  |  |  |  |  |  |  | 
C=CC(=O)N1CC[C@H](N2CC(c3cc4c(c(C5CC5)c3)O[C@H](C)c3c(ncnc3N3CCS(=O)(=O)CC3)N4)C2)C1 (single isomer, unassigned) [compound 95] | > 10000 nM | 193 °C | ~6.02 | 0.0708 µM | 2.35e-05 s⁻¹ | 332 M⁻¹ s⁻¹ |  |  |  |  |  |  |  |  | 
C=CC(=O)N1CC[C@@H](N2CC(c3cc4c(c(C5CC5)c3)O[C@H](C)c3c(ncnc3N3CCS(=O)(=O)CC3)N4)C2)C1 (single isomer, unassigned) [compound 96] | > 10000 nM | 233 °C | 6.28 | 0.0324 µM | 2.16e-05 s⁻¹ | 665 M⁻¹ s⁻¹ |  |  |  |  |  |  |  |  | 
C=CC(=O)N1CC[C@@H](N2CCC(c3cc(C)c4c(c3)Nc3ncnc(N5CCS(=O)(=O)CC5)c3CO4)CC2)C1 (single isomer, unassigned) [compound 114] | ~10000 nM | 251 °C | 7.29 and 7.55 | 0.0288 µM and 0.0678 µM | 4.67e-05 s⁻¹ | 1620 M⁻¹ s⁻¹ | <5 | 8.94e-05 s⁻¹ | 1318 M⁻¹ s⁻¹ |  |  |  |  |  | 
C=CC(=O)N1CC[C@@H](N2CC(c3cc(C)c4c(c3)Nc3ncnc(N5CCS(=O)(=O)CC5)c3[C@@H](C)O4)C2)C1 (single isomer, unassigned) [compound 122] |  | 237 °C | 7.09 and 7.10 and 7.21 | 0.0292 µM |  |  | <5 | 4.85e-05 s⁻¹ | 1658.55 M⁻¹ s⁻¹ and 891.412 M⁻¹ s⁻¹ |  |  |  |  |  | 
C=CC(=O)N1CCC(N2CCC(c3ccc4c(c3)Nc3ncnc(N5CCOCC5)c3CO4)CC2)CC1 [compound 2] | > 10000 nM | 211 °C | 6.48 and 6.49 | 0.754 µM | 6.34e-05 s⁻¹ | 98.7 M⁻¹ s⁻¹ |  |  |  | 0.365 µM | 0.000198 s⁻¹ | 543 M⁻¹ s⁻¹ |  |  | 
C=CC(=O)N1CC(C2CCN(c3ccc4c(c3)Nc3ncnc(N5CCOCC5)c3CO4)CC2)C1 [compound 7] | > 10000 nM | 234 °C | 5.17 |  |  |  |  |  |  | 1.79 µM | 0.000178 s⁻¹ | 99.5 M⁻¹ s⁻¹ |  |  | 
C=CC(=O)N1CCC(N2CC(c3cc(C)c4c(c3)Nc3ncnc(N5CCOCC5)c3CO4)C2)CC1 [compound 14] | > 10000 nM | 191 °C | 6.33 | 0.183 µM | 3.46e-05 s⁻¹ | 189 M⁻¹ s⁻¹ |  |  |  |  |  |  |  |  | 
C=CC(=O)N1CCC(N2CC(c3cc(C)c4c(c3)Nc3ncnc(N5CCOCC5)c3CO4)C2)C1 (stereo not shown) [compound 16] | > 10000 nM | 151 °C | 6.34 | 0.192 µM | 5.05e-05 s⁻¹ | 263 M⁻¹ s⁻¹ |  |  |  |  |  |  |  |  | 
C=CC(=O)N1CC(N2CCC(c3cc(C)c4c(c3)Nc3ncnc(N5CCS(=O)(=O)CC5)c3[C@H](C)O4)CC2)C1 [compound 32] | > 10000 nM | > 300 °C | ~7.90 | 0.0249 µM | 4.14e-05 s⁻¹ | 1660 M⁻¹ s⁻¹ |  |  |  |  |  |  | 1280 M⁻¹ s⁻¹ |  | 
C=CC(=O)N1CC(N2CCC(c3ccc4c(c3)Nc3ncnc(N5CCOCC5)c3CO4)CC2C)C1 (stereo not shown) [compound 34] | > 10000 nM | 213 °C | 6.00 |  |  |  |  |  |  | 0.258 µM | 0.000186 s⁻¹ | 721 M⁻¹ s⁻¹ |  |  | 
C=CC(=O)N1CC(N2CCCC(c3ccc4c(c3)Nc3ncnc(N5CCOCC5)c3CO4)C2)C1 (stereo not shown) [compound 35] | > 10000 nM | 175 °C | ~5.10 |  |  |  |  |  |  | 2.05 µM | 8.56e-05 s⁻¹ | 41.8 M⁻¹ s⁻¹ |  |  | 
C=CC(=O)N1CC(N2CC[C@@H](c3ccc4c(c3)Nc3ncnc(N5CCOCC5)c3CO4)[C@@H](C)C2)C1 [compound 36] | > 10000 nM | 232 °C | 6.13 and 6.32 |  |  |  |  |  |  | 0.0803 µM and 0.233 µM | 8.19e-05 s⁻¹ | 1020 M⁻¹ s⁻¹ |  | 0.0001256 s⁻¹ | 539.8 M⁻¹ s⁻¹
C=CC(=O)N1CC(N2CCC(c3ccc4c(c3)Nc3ncnc(C5=CCOCC5)c3CO4)CC2)C1 [compound 39] | > 10000 nM | 243 °C | 5.65 | 0.61 µM | 5.09e-05 s⁻¹ | 83.4 M⁻¹ s⁻¹ |  |  |  |  |  |  |  |  | 
C=CC(=O)N1CC(N2C3CCC2CC(c2ccc4c(c2)Nc2ncnc(N5CCOCC5)c2CO4)C3)C1 (stereo not shown) [compound 40] | > 10000 nM | 212 °C | 6.36 | 0.16 µM | 5.56e-05 s⁻¹ |  |  |  | 347 M⁻¹ s⁻¹ |  |  |  |  |  | 
C=CC(=O)N1CC(N2C3CCC2CC(c2ccc4c(c2)Nc2ncnc(N5CCOCC5)c2CO4)C3)C1 (stereo not shown) [compound 41] |  | 208 °C | 5.92 and 5.88 | 0.991 µM and 0.898 µM |  |  | <5 | 5.55e-05 s⁻¹ and 5.25e-05 s⁻¹ | 56 M⁻¹ s⁻¹ and 58.5 M⁻¹ s⁻¹ |  |  |  |  |  | 
C=CC(=O)N1CC(N2CCC(c3cc(Cl)c4c(c3)Nc3ncnc(N5CCOCC5)c3CO4)CC2)C1 [compound 42] | > 10000 nM | > 300 °C | 6.43 | 0.0282 µM | 4.14e-05 s⁻¹ | 1460 M⁻¹ s⁻¹ |  |  |  |  |  |  |  |  | 
C=CC(=O)N1CC(N2CCC(c3cc(Cl)c4c(c3)Nc3ncnc(N5CCS(=O)(=O)CC5)c3CO4)CC2)C1 [compound 43] | > 10000 nM | 296 °C | 6.88 |  |  |  |  |  |  |  |  |  | 1490 M⁻¹ s⁻¹ |  | 
C=CC(=O)N1CCC(N2CC(c3cc4c(c(C(F)(F)F)c3)OCc3c(ncnc3-c3cnn(C)c3)N4)C2)CC1 [compound 44] | > 10000 nM | 178 °C | 5.93 | 0.67 µM | 4.31e-05 s⁻¹ | 64.4 M⁻¹ s⁻¹ |  |  |  |  |  |  |  |  | 
C=CC(=O)N1CCC(N2CC(c3cc4c(c(C(F)(F)F)c3)OCc3c(ncnc3N3CCOCC3)N4)C2)CC1 [compound 45] | > 10000 nM | 158 °C | 6.37 | 0.219 µM | 4.44e-05 s⁻¹ | 203 M⁻¹ s⁻¹ |  |  |  |  |  |  |  |  | 
C=CC(=O)N1CC(N2CCC(c3cc4c(cn3)OCc3c(ncnc3N3CCOCC3)N4)CC2)C1 [compound 48] | > 10000 nM | 220 °C | 6.11 | 0.232 µM | 5.9e-05 s⁻¹ | 254 M⁻¹ s⁻¹ |  |  |  |  |  |  |  |  | 
C=CC(=O)N1CC(N2CCC(c3cc4c(c(C)n3)OCc3c(ncnc3N3CCS(=O)(=O)CC3)N4)CC2)C1 [compound 58] | > 10000 nM | 257 °C | 6.54 | 0.0451 µM | 5.57e-05 s⁻¹ | 1240 M⁻¹ s⁻¹ |  |  |  |  |  |  |  |  | 
